Assay results as given in ChEMBL document CHEMBL1136430, “Chain-branched acyclic phenethylthiocarbamates as vanilloid receptor antagonists” (Bioorg Med Chem Lett, 2003).

Assays:
[1] = target: T1, Vanilloid receptor (Rattus norvegicus, UniProt Q9ERZ8+Q9WUD2+O35433); test: Ability to inhibit [Ca2+] influx neonatal rat cultured spinal sensory neurons.; type: functional
[2] = target: T1, Vanilloid receptor; test: Ability to cause [Ca2+] influx in neonatal rat cultured spinal sensory neurons.; type: functional

Compound	IC50 [1] [µM]	EC50 [2] [µM]
CCC(CCc1ccc(O)c(OC)c1)OC(=O)NCCc1ccccc1 (stereo not given)	> 30	> 100
COc1cc(CCC(CCc2ccc(C(F)(F)F)cc2)O/C(S)=N/CCc2ccccc2)ccc1O (stereo not given)	10.7	> 100
COc1cc(CC(C)O/C(S)=N/CCc2ccccc2)ccc1O (stereo not given)	> 30	> 100
CCC(CCc1ccc(O)c(OC)c1)/N=C(\S)NCCc1ccccc1 (stereo not given)	28.5	> 100
CCC(CCc1ccc(O)c(OC)c1)C/C(S)=N/CCc1ccccc1 (stereo not given)	> 30	> 100
CCC(CCc1ccc(O)c(OC)c1)N(Cc1ccccc1)/C(S)=N/CCc1ccccc1 (stereo not given)	20.9	> 100
CCC(CCc1ccc(O)c(OC)c1)CC(=O)NCCc1ccccc1 (stereo not given)	> 30	> 100
CCC(CCc1ccc(O)c(OC)c1)N(CCc1ccccc1)/C(S)=N/CCc1ccccc1 (stereo not given)	> 30	> 100
COc1cc(CCCO/C(S)=N/CCc2ccccc2)ccc1O	> 30	> 100
COc1cc(CCC(CCCc2ccccc2)O/C(S)=N/CCc2ccccc2)ccc1O (stereo not given)	> 30	> 100
Oc1cc2c(cc1O)CN(C(=S)NCCc1ccc(Cl)cc1)CCC2 [CAPSAZEPINE]	0.6	> 100
CCC(CCc1ccc(O)c(OC)c1)O/C(S)=N/CCc1ccccc1 (stereo not given)	6.3	> 100
CCC(CCc1ccc(O)c(OC)c1)NC(=O)NCCc1ccccc1 (stereo not given)	> 30	> 100
COc1cc(CCC(C)O/C(S)=N/CCc2ccccc2)ccc1O (stereo not given)	9.9	> 100
COc1cc(CCCC(C)O/C(S)=N/CCc2ccccc2)ccc1O (stereo not given)	> 30	> 100
CCCC(CCc1ccc(O)c(OC)c1)O/C(S)=N/CCc1ccccc1 (stereo not given)	27.9	> 100
COc1cc(CCC(Cc2ccccc2)O/C(S)=N/CCc2ccccc2)ccc1O (stereo not given)	25	> 100
COc1cc(CCC(CCc2ccccc2)O/C(S)=N/CCc2ccccc2)ccc1O (stereo not given)	19.2	> 100
COc1cc(CCC(O/C(S)=N/CCc2ccccc2)c2ccccc2)ccc1O (stereo not given)	> 30	> 100
CCC(CCc1ccc(O)c(OC)c1)N(C)/C(S)=N/CCc1ccccc1 (stereo not given)	27.2	> 100
